Here are results for 17 molecules from patent US8802853B2, “Arylalkenyl and arylalkynyl substituted imidazoquinolines” (3M Innovative Properties Company, priority 2003, dated 2014).

Structures can show the parent of a compound that is named as a salt.

For orientation: melting point means the temperature of the solid-liquid transition. Take `CCc1nc2c(N)nc3ccccc3c2n1CC#Cc1cccnc1` (as salt: hydroiodid) [Example 1, 2-Ethyl-1-[3-(pyridin-3-yl)-2-propynyl]-1H-imidazo[4,5-c]quinolin-4-amine]: the melting point was 249 to 251 °C (dec.).
Consider `CCc1nc2c(N)nc3ccccc3c2n1CC#Cc1cccs1` (as salt: hydroiodid) [Example 2, 2-Ethyl-1-[3-(thien-2-yl)-2-propynyl]-1H-imidazo[4,5-c]quinolin-4-amine], for which the melting point lay in the range of 185 to 205 °C.
The figure for `CCc1nc2c(N)nc3ccccc3c2n1CC#Cc1ccccc1` (as salt: hydroiodid) [Example 4, 2-Ethyl-1-(3-phenyl-2-propynyl)-1H-imidazo[4,5-c]quinolin-4-amine] is 200 to 212 °C (dec.); for `CCc1nc2c(N)nc3ccccc3c2n1CC#Cc1cnccn1` (as salt: hydroiodid) [Example 5, 2-Ethyl-1-[3-(pyrazin-2-yl)-2-propynyl]-1H-imidazo[4,5-c]quinolin-4-amine] it is 180 to 225 °C (dec.); for `CCc1nc2c(N)nc3ccccc3c2n1CCCC#Cc1ccc(OC)cc1` (as salt: hydroiodid) [Example 14, 2-Ethyl-1-[5-(4-methoxyphenyl)-4-pentynyl]-1H-imidazo[4,5-c]quinolin-4-amine] it is 230 °C.
Regarding `CCOC(=O)c1ccc(C#CCn2c(CC)nc3c(N)nc4ccccc4c32)cc1` [Example 6, Ethyl 4-[3-(4-Amino-2-ethyl-1H-imidazo[4,5-c]quinolin-1-yl)-1-propynyl]benzoate], the melting point was 221 to 222 °C (dec.).
As for `CCc1nc2c(N)nc3ccccc3c2n1CC#Cc1ccc(OC)cc1` [Example 7, 2-Ethyl-1-[3-(4-methoxyphenyl)-2-propynyl]-1H-imidazo[4,5-c]quinolin-4-amine], the figure is 179 to 181 °C; as for `CCc1nc2c(N)nc3ccccc3c2n1CC#Cc1cccc(C(F)(F)F)c1` [Example 8, 2-Ethyl-1-[3-(3-trifluoromethylphenyl)-2-propynyl]-1H-imidazo[4,5-c]quinolin-4-amine], 202.5 to 203.5 °C; as for `CCc1nc2c(N)nc3ccccc3c2n1CC#Cc1ccccc1C(F)(F)F` [Example 9, 2-Ethyl-1-[3-(2-trifluoromethylphenyl)-2-propynyl]-1H-imidazo[4,5-c]quinolin-4-amine], 234 to 235 °C (dec.).
`CCc1nc2c(N)nc3ccccc3c2n1CC#Cc1ccc([N+](=O)[O-])cc1` [Example 10, 2-Ethyl-1-[3-(4-nitrophenyl)-2-propynyl]-1H-imidazo[4,5-c]quinolin-4-amine] registered a melting point of 190 to 206 °C.
With `CCc1nc2c(N)nc3ccccc3c2n1CC#Cc1cccc([N+](=O)[O-])c1` [Example 11, 2-Ethyl-1-[3-(3-nitrophenyl)-2-propynyl]-1H-imidazo[4,5-c]quinolin-4-amine], the melting point lay within 224 to 243 °C.
With `CCc1nc2c(N)nc3ccccc3c2n1CCCC#Cc1cccs1` [Example 12, 2-Ethyl-1-[5-(thien-2-yl)-4-pentynyl]-1H-imidazo[4,5-c]quinolin-4-amine], the melting point was 175 to 190 °C (dec.).
For the molecule `CCc1nc2c(N)nc3ccccc3c2n1CCCC#Cc1cccnc1` [Example 13], the melting point was 188 to 192 °C.
As for `CCc1nc2c(N)nc3ccccc3c2n1CCCC#Cc1ccccc1` [Example 15, 2-Ethyl-1-(5-phenyl-4-pentynyl)-1H-imidazo[4,5-c]quinolin-4-amine], the figure is 199 to 202 °C; as for `CCc1nc2c(N)nc3ccccc3c2n1CCCC#Cc1cccc(C(F)(F)F)c1` [Example 16, 2-Ethyl-1-[5-(3-trifluoromethylphenyl)-4-pentynyl]-1H-imidazo[4,5-c]quinolin-4-amine], 178 to 181 °C.
Regarding `CCc1nc2c(N)nc3ccccc3c2n1CCC/C=C/c1cccnc1` [Example 17, (E)-2-Ethyl-1-[5-(pyridin-3-yl)-4-pentenyl]-1H-imidazo[4,5-c]quinolin-4-amine], the melting point was 188 to 190 °C.
In turn, `CCc1nc2c(N)nc3ccccc3c2n1CCC/C=C/c1ccc(OC)cc1` [Example 18, (E)-2-Ethyl-1-[5-(4-methoxyphenyl)-4-pentenyl]-1H-imidazo[4,5-c]quinolin-4-amine] returned a melting point of 179 to 180 °C.
